The numbers were not newly measured in patent publication US7825135B2, “Heteroaryl piperidine glycine transporter inhibitors” (Merck Sharp & Dohme Limited, priority 2004, dated 2010), which cites them from elsewhere.

Structures are written as SMILES.

The test system of one data set is NMDA receptor. To be noted: rat; blockade of GlyT1.
For data set [1] the following is noted: mice.
The conditions of data set [2]: schizophrenia patients poorly responsive to antipsychotic drugs.
For data set [3] the following is noted: high doses, oral, add-on to standard neuroleptic therapy.

Take `CN(CCC(Oc1ccc(-c2ccccc2)cc1)c1ccc(F)cc1)CC(=O)O` (stereo not shown) [NFPS]: the “effect on NMDA receptor activity and NMDA receptor-dependent long-term potentiation” value in the data set with NMDA receptor is “potentiates NMDA receptor activity and NMDA receptor-dependent long-term potentiation”. In addition, the “effect on pre-pulse inhibition (sensory gating)” value in data set [1] is listed as “enhance pre-pulse inhibition”. With `CNCC(=O)O` [sarcosine], the “effect on positive, negative and cognitive symptoms” value in data set [2] is given as “beneficial effect”. On to `NCC(=O)O` [glycine], for which, in data set [3], the “effect on symptoms of schizophrenia patients” value is “improvement of the symptoms”.
